Consider three substances from US11396524B2, “Hydrate crystal of 3′,3′-cGAMP” (Yamasa Corporation, priority 2018, dated 2022).

Holding throughout (type): physicochemical
The nature of data set [1]: Hygroscopicity test: standing 3 days in desiccator at 30° C. and 93% humidity, moisture content by the Karl-Fischer method. Conditions: for Moisture content after standing / Moisture content before standing: Karl-Fischer method; for Moisture content after standing: after standing 3 days at 30° C., humidity 93% (saturated potassium nitrate desiccator); for Moisture content before standing: before standing at 30° C.; for Moisture content before standing / Δ Moisture content: humidity 93%; for Δ Moisture content: after minus before standing 3 days at 30° C. The method, then: A hydrate crystal of 3′,3′-cGAMP according to the invention may be either a crystal of alkali metal salt or a crystal of free acid. Either is less hygroscopic than existing powder. Thus, each is easy to handle in various purposes and is thus useful as a pharmaceutical raw material or the like. Note that the wording “less hygroscopic” herein refers to the case where after (A) allowed to stand for 1 day under conditions at a temperature of 30° C. and a humidity of 43% and then (B) allowed to stand for 3 days under conditions at a temperature of 30° C. and a humidity of 93%, a substance of interest has a moisture content of 25% or less at the end point (B) and the difference in the moisture content between the end point (A) and the end point (B) is within ±5%.
The crystals obtained in the above Examples 1 and 2 as well as the lyophilized product obtained in the Reference Example were allowed to stand for 3 days in a desiccator filled with a saturated potassium nitrate solution and kept at a temperature of 30° C. and a humidity of 93%. The moisture content was compared between before and after the standing by the Karl-Fischer method.

The nature of data set [2]: Stability test, crystals stored at 60° C. The method, then:
Meanwhile, the crystals were stored at 60° C. and subjected to a stability test.

Data set [3] can be described thus: Crystal moisture content by the Karl-Fischer method. Conditions: for Moisture content after storage at a humidity of 43% for 1 day: stored at humidity 43% for 1 day. The method, then: In Example 1, the crystals of 3′,3′-cGAMP sodium salt were prepared. Here, the crystal moisture content immediately after drying was measured by the Karl-Fischer method. As a result, the moisture content was 7.9%. […] In addition, the crystals were stored at a humidity of 43% for 1 day so as to stabilize their moisture content. The moisture content was likewise measured.
The crystals of 3′,3′-cGAMP free acid as prepared in Example 2 were stored at a humidity of 43% for 1 day so as to stabilize their moisture content. Then, the crystal moisture content was measured by the Karl-Fischer method.

With 3′,3′-cGAMP sodium salt [Example 1], in data set [1] (sodium salt), the “Moisture content after standing” value was found to be 21.60% and the “Δ Moisture content” value is on record as “+3.50%”. Moreover, in data set [1], the “Moisture content before standing” value is given as 18.10%. The “Stability under high temperature conditions (decomposition of 3′,3′-cGAMP)” value in data set [2] is given as “not apparently decomposed”. Also, the “Moisture content immediately after drying” value in data set [3] (immediately after drying) is on record as 7.9%. Besides, in data set [3], the “Moisture content after storage at a humidity of 43% for 1 day” value was found to be 18.1%.

Regarding 3′,3′-cGAMP free acid [Example 2], in data set [1], the “Moisture content after standing” value came to 23.09%, the “Moisture content before standing” value was 24.71% and the “Δ Moisture content” value is recorded as −1.62%. Further, the “Stability under high temperature conditions (decomposition of 3′,3′-cGAMP)” value in data set [2] is “not apparently decomposed”. The “Moisture content after storage at a humidity of 43% for 1 day” value in data set [3] was 24.7%.

As for “3′,3′-cGAMP sodium salt [Reference Example, reference compound]”, in data set [1] (sodium salt), the “Moisture content after standing” value is given as 36.01%, the “Moisture content before standing” value is 12.94% and the “Δ Moisture content” value is “+23.07%”.
